For one test, the target named is T1, human Eg5 (Homo sapiens, UniProt P52732).
T1 construct: 1 μM microtubules and 40 nM Eg5-367H; His6 (C); made in house; host or cells: pRSETa backbone
T1 sequence (P52732 1-367): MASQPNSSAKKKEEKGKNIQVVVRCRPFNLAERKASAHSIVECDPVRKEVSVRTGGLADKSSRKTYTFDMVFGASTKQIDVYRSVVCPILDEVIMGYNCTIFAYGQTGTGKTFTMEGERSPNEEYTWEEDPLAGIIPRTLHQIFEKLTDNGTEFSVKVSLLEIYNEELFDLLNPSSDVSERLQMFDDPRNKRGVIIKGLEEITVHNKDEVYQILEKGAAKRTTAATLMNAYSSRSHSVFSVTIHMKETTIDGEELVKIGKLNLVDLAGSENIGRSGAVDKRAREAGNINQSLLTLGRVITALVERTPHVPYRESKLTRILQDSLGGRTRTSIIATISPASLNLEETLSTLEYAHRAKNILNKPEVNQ
The experiment in a line: steady-state Eg5 ATPase assay (NADH-coupled). It is filed as biochemical. As to conditions: library screen. The source says:
Coding regions for the expression of C-terminally His6-tagged constructs of human Eg5 were generated by polymerase chain reaction using a pBluescript template containing full length human Eg5 [23] and the following primers: a common N-terminal primer 5′-[…] and specific C-teminal primers; 5′-[…] (hEg5–367H), 5′-[…] (hEg5–405H), 5′-[…] (hEg5–437H). The PCR products were ligated into a pRSETa backbone. Eg5 protein constructs were expressed and purified as described previously [Woehike, G., Ruby, A. K., Hart, C. L., Ly, B., Hom-Booher, N. and Vale, R. D. (1997) Microtubule interaction site of the kinesin motor. Cell. 90, 207–216]. […] The concentration of Eg5 was measured using the Edelhoch [Pace, C. […]
We measured the ATPase activity of Eg5 in vitro using an assay that couples the hydrolysis of ATP to the oxidation of NADH [Woehike, G., Ruby, A. K., Hart, C. […] In the assay, the concentration of ATP remains constant however, the decrease in NADH fluorescence is a convenient measure of the amount of ATP turned over. […] Time-points for NADH fluorescence were measured in 384 well black plates (NalgeneNUNC) by a Wallac Victor^2 1420 multilabel counter, umbelliferone filter set (excitation: 355 nm, emission: 420 nm), and the steady-state rate of fluorescence decay was calculated using a linear fit by Microsoft Excel. […]

The subject of test [1] is human A549 lung carcinoma cells. The test can be described thus: genistein suppressor screen (BrdU cytoblot with 100 μM genistein challenge). It is filed as cell-based. As to conditions: A549 cells challenged with 100 μM genistein. As to the method: Both plates of stock solutions (10) were used in phenotypic assays. In particular, we exposed living human A549 lung carcinoma cells to 708 (324+384) stock solutions under two different assay conditions. These experiments were performed with a hand-held pin-transfer tool, though our complete technology platform includes a pin-transfer robot capable of mapping into multiple microtiter plates. In certain embodiments, cultured cells exposed to 5-bromodeoxyuridine (BrdU) will incorporate this base analog into their DNA when actively dividing, and this incorporation can be detected by cytoblot assay using antibodies directed against BrdU (B. R. Stockwell, S. J. Haggarty, S. L. Schreiber, High-throughput screening of small molecules in miniaturized mammalian cell-based assays involving post-translational modifications, Chem. Biol. 6 (1999) 71–83). […] Thus, ‘hits’ in the former assay are detected as a loss of signal in a high-signal array (FIG. 14(a)), while ‘hits’ in the latter assay are detected as a gain of signal in a lowsignal array (FIG. 14(b)). […]
For each of these assays, aliquots from each of the two plates (10) were exposed to cells in duplicate to ensure the fidelity of the results. Compounds were scored as ‘hits’ only if they scored strongly in both replicates of a given experiment. […]

`CCO[C@H]1OC(C(=O)NCc2ccc(F)cc2)=C[C@@H](c2ccccc2)[C@H]1CCCO`: the Eg5 inhibitory activity result on human Eg5 is “found to inhibit Eg5”. In the case of `O=c1c(-c2ccc(O)cc2)coc2cc(O)cc(O)c12` [genistein, 4′,5,7 trihydroxyisoflavone], in test [1], the “BrdU incorporation judged by cytoblot assay” value is “impaired”.
